Test results from patent US20220324835A1 (Nurix Therapeutics, Inc., priority 2018, published 2022).

Key:
[1] = target: T1, Cbl-b (Homo sapiens, UniProt Q13191); assay: Cbl-b inhibition assay (Cbl-b activity assay, FRET, Biological Example 1; 100 mM NaCl, 60 nM Src kinase); format: biochemical; conditions: upper bound stated in text lists; read-out: IC50 values in the Cbl-b inhibition assay of Biological Example 1
Method in brief: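 Here, the E2 UbcH5B, irreversibly linked to Bodipy-fluorescein ubiquitin, binds Cbl-b once Src kinase phosphorylates it; Cbl-b carries an N-terminal biotinylated Avi-tag captured by streptavidin-terbium. An absent FRET signal indicates inhibition.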

[2] = test system: T-cell; assay: CD25 cell surface staining on T-cells stimulated with anti-CD3 antibody alone (Biological Example 2); format: cell-based; conditions: primary human total T-cells, baseline = anti-CD3/anti-CD28 stimulated cells without inhibitor, read-out: CD25 staining, Anti-CD3 stimulation, fold change over baseline; for fold induction at 1 µM: 1 μM compound; for fold induction at 8 µM: 8 μM compound
[3] = test system: T-cell; assay: IL-2 secretion from T-cells co-stimulated with anti-CD3 and anti-CD28 antibody (Biological Example 2); format: cell-based, human; conditions: Homo sapiens, T-cell, primary human total T-cells, baseline = anti-CD3/anti-CD28 stimulated cells without inhibitor, read-out: IL-2 secretion, Anti-CD3/Anti-CD28 stimulation, fold change over baseline; for fold induction at 0.3 µM: 0.3 μM compound; for fold induction at 1 µM: 1 μM compound; for fold induction at 4 µM: 4 μM compound
Method in brief: (§1)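 Values are fold-change over baseline: readings (IL-2 release, CD25 staining) from inhibitor-treated T-cells divided against untreated cells […]. No detailed procedure stated.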

[4] = target: T1, Cbl-b; assay: Cbl-b activity assay (Cbl-b inhibition assay), TR-FRET of Cbl-b interaction with UbcH5B-Ub; format: biochemical; conditions: assay buffer with 100 mM NaCl, 60 nM Src kinase; read-out: Cbl-b activity IC50
Method in brief: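 Compound-treated Cbl-b was incubated 1.5 h with Src kinase (60 nM final; 30 nM for asterisked values, which also used 50 mM instead of 100 mM NaCl), 1 mM ATP and 5 mM MgCl2. Binding to fluorescent Ub-loaded UbcH5B (C85K mutant) was then read by TR-FRET after 1 h more.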

[5] = test system: T-cell; assay: CD25 cell surface staining on T-cells co-stimulated with anti-CD3 and anti-CD28 antibody (Biological Example 2); format: cell-based, human; conditions: Homo sapiens, T-cell, primary human total T-cells, baseline = anti-CD3/anti-CD28 stimulated cells without inhibitor, read-out: CD25 staining, Anti-CD3/Anti-CD28 stimulation, fold change over baseline; for fold induction at 0.3 µM: 0.3 μM compound; for fold induction at 1 µM: 1 μM compound; for fold induction at 4 µM: 4 μM compound
Method in brief: as §1

[6] = test system: T-cell; assay: IL-2 secretion from T-cells stimulated with anti-CD3 antibody alone (Biological Example 2); format: cell-based; conditions: primary human total T-cells, read-out: IL-2 secretion, Anti-CD3 stimulation, fold change over baseline; for fold induction at 1 µM: 1 μM compound; for fold induction at 8 µM: 8 μM compound

T1 sequence (Q13191 36-427): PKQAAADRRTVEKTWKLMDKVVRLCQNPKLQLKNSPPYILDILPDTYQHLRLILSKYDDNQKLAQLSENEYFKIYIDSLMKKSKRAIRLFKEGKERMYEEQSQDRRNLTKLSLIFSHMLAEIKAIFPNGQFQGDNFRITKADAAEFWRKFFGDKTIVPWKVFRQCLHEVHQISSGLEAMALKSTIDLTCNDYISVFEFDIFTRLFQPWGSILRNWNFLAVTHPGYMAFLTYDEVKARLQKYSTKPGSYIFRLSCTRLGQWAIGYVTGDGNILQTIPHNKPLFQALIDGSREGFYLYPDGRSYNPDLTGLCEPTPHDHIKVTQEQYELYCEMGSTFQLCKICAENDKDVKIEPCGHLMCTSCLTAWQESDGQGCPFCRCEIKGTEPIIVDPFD

Cn1cnnc1CC1(c2cccc(N3Cc4c(cc(CN5CCC(C)(F)C5)cc4C(F)(F)F)C3=O)c2)COC1 (centres unmarked) [Compound 435, 6-((3-fluoro-3-methylpyrrolidin-1-yl)methyl)-2-(3-(3-((4-methyl-4H-1,2,4-triazol-3-yl)methyl)oxetan-3-yl)phenyl)-4-(trifluoromethyl)isoindolin-1-one]
IC50 [1]: ≤ 100 nM | fold induction at 1 µM [2]: > 1 | fold induction at 0.3 µM [3]: > 7.5 | fold induction at 1 µM [3]: > 7.5 | IC50 [4]: < 100 nM | fold induction at 0.3 µM [5]: 1.31 to 1.5 | fold induction at 1 µM [5]: 1.31 to 1.5 | fold induction at 1 µM [6]: > 0.201

Cn1cnnc1CC1(c2cccc(N3Cc4c(cc(CO)cc4C(F)(F)F)C3=O)c2)COC1 [Compound 437, 6-(hydroxymethyl)-2-(3-(3-((4-methyl-4H-1,2,4-triazol-3-yl)methyl)oxetan-3-yl)phenyl)-4-(trifluoromethyl)isoindolin-1-one]
IC50 [1]: ≤ 100 nM | fold induction at 1 µM [2]: 0.601 to 0.8 | fold induction at 8 µM [2]: 0.601 to 0.8 | fold induction at 0.3 µM [3]: 2.51 to 5 | fold induction at 1 µM [3]: 5 to 7.5 | fold induction at 4 µM [3]: > 7.5 | IC50 [4]: < 100 nM | fold induction at 0.3 µM [5]: 1.01 to 1.3 | fold induction at 1 µM [5]: 1.31 to 1.5 | fold induction at 4 µM [5]: 1.51 to 1.75 | fold induction at 1 µM [6]: 0.101 to 0.15 | fold induction at 8 µM [6]: 0.051 to 0.1

Cn1cnnc1C(F)(F)[C@](C)(F)c1cccc(N2Cc3c(cc(-c4cncc(F)c4)cc3C(F)(F)F)C2=O)c1 [Compound 440, (R)-6-(5-fluoropyridin-3-yl)-2-(3-(1,1,2-trifluoro-1-(4-methyl-4H-1,2,4-triazol-3-yl)propan-2-yl)phenyl)-4-(trifluoromethyl)isoindolin-1-one]
IC50 [1]: ≤ 300 nM | fold induction at 1 µM [2]: 0.601 to 0.8 | fold induction at 8 µM [2]: 0.801 to 1 | fold induction at 0.3 µM [3]: 1.01 to 2.5 | fold induction at 1 µM [3]: 2.51 to 5 | fold induction at 4 µM [3]: 2.51 to 5 | IC50 [4]: 100 to 300 nM | fold induction at 0.3 µM [5]: < 1 | fold induction at 1 µM [5]: 1.01 to 1.3 | fold induction at 4 µM [5]: 1.01 to 1.3 | fold induction at 1 µM [6]: 0.101 to 0.15 | fold induction at 8 µM [6]: 0.151 to 0.2

CN1CCN(c2cc3c(c(C(F)(F)F)c2)CN(c2cccc([C@@](C)(F)C(F)(F)c4nncn4C)c2)C3=O)CC1 [Compound 441, (R)-6-(4-Methylpiperazin-1-yl)-2-(3-(1,1,2-trifluoro-1-(4-methyl-4H-1,2,4-triazol-3-yl)propan-2-yl)phenyl)-4-(trifluoromethyl)isoindolin-1-one]
IC50 [1]: ≤ 300 nM | fold induction at 1 µM [2]: 0.601 to 0.8 | fold induction at 8 µM [2]: > 1 | fold induction at 0.3 µM [3]: 1.01 to 2.5 | fold induction at 1 µM [3]: 1.01 to 2.5 | fold induction at 4 µM [3]: 2.51 to 5 | IC50 [4]: 100 to 300 nM | fold induction at 0.3 µM [5]: 1.01 to 1.3 | fold induction at 1 µM [5]: 1.01 to 1.3 | fold induction at 4 µM [5]: 1.01 to 1.3 | fold induction at 1 µM [6]: 0.051 to 0.1 | fold induction at 8 µM [6]: 0.151 to 0.2

C[C@@H]1CN(C)CCN1c1cc2c(c(C(F)(F)F)c1)CN(c1cccc([C@@](C)(F)C(F)(F)c3nncn3C)c1)C2=O [Compound 443, 6-((R)-2,4-Dimethylpiperazin-1-yl)-2-(3-((R)-1,1,2-trifluoro-1-(4-methyl-4H-1,2,4-triazol-3-yl)propan-2-yl)phenyl)-4-(trifluoromethyl)isoindolin-1-one]
IC50 [1]: ≤ 100 nM | fold induction at 1 µM [2]: 0.801 to 1 | fold induction at 8 µM [2]: > 1 | fold induction at 0.3 µM [3]: 1.01 to 2.5 | fold induction at 1 µM [3]: 1.01 to 2.5 | fold induction at 4 µM [3]: 2.51 to 5 | IC50 [4]: < 100 nM | fold induction at 0.3 µM [5]: 1.01 to 1.3 | fold induction at 1 µM [5]: 1.01 to 1.3 | fold induction at 4 µM [5]: 1.31 to 1.5 | fold induction at 1 µM [6]: < 0.05 | fold induction at 8 µM [6]: 0.101 to 0.15

C[C@H]1CN(C)CCN1c1cc2c(c(C(F)(F)F)c1)CN(c1cccc([C@@](C)(F)C(F)(F)c3nncn3C)c1)C2=O [Compound 444, 6-((S)-2,4-Dimethylpiperazin-1-yl)-2-(3-((R)-1,1,2-trifluoro-1-(4-methyl-4H-1,2,4-triazol-3-yl)propan-2-yl)phenyl)-4-(trifluoromethyl)isoindolin-1-one]
IC50 [1]: ≤ 100 nM | fold induction at 1 µM [2]: > 1 | fold induction at 8 µM [2]: > 1 | fold induction at 0.3 µM [3]: 1.01 to 2.5 | fold induction at 1 µM [3]: 5 to 7.5 | fold induction at 4 µM [3]: > 7.5 | IC50 [4]: < 100 nM | fold induction at 0.3 µM [5]: 1.01 to 1.3 | fold induction at 1 µM [5]: 1.01 to 1.3 | fold induction at 4 µM [5]: 1.31 to 1.5 | fold induction at 1 µM [6]: 0.101 to 0.15 | fold induction at 8 µM [6]: > 0.201

CN1CC2CCC(C1)N2c1cc2c(c(C(F)(F)F)c1)CN(c1cccc([C@@](C)(F)C(F)(F)c3nncn3C)c1)C2=O [Compound 445, 6-(3-Methyl-3,8-diazabicyclo[3.2.1]octan-8-yl)-2-(3-((R)-1,1,2-trifluoro-1-(4-methyl-4H-1,2,4-triazol-3-yl)propan-2-yl)phenyl)-4-(trifluoromethyl)isoindolin-1-one]
IC50 [1]: ≤ 100 nM | fold induction at 1 µM [2]: > 1 | fold induction at 8 µM [2]: > 1 | fold induction at 0.3 µM [3]: 5 to 7.5 | fold induction at 1 µM [3]: > 7.5 | fold induction at 4 µM [3]: > 7.5 | IC50 [4]: < 100 nM | fold induction at 0.3 µM [5]: 1.31 to 1.5 | fold induction at 1 µM [5]: 1.51 to 1.75 | fold induction at 4 µM [5]: 1.51 to 1.75 | fold induction at 1 µM [6]: > 0.201 | fold induction at 8 µM [6]: > 0.201

Cn1cnnc1C(F)(F)[C@](C)(F)c1cccc(N2Cc3c(cc(CN4CC(C(F)F)C4)cc3C(F)(F)F)C2=O)c1 [Compound 453, (R)-6-((3-(difluoromethyl)azetidin-1-yl)methyl)-2-(3-(1,1,2-trifluoro-1-(4-methyl-4H-1,2,4-triazol-3-yl)propan-2-yl)phenyl)-4-(trifluoromethyl)isoindolin-1-one]
IC50 [1]: ≤ 100 nM | fold induction at 1 µM [2]: > 1 | fold induction at 8 µM [2]: > 1 | fold induction at 0.3 µM [3]: 5 to 7.5 | fold induction at 1 µM [3]: > 7.5 | fold induction at 4 µM [3]: > 7.5 | IC50 [4]: < 100 nM | fold induction at 0.3 µM [5]: 1.31 to 1.5 | fold induction at 1 µM [5]: 1.31 to 1.5 | fold induction at 4 µM [5]: 1.31 to 1.5 | fold induction at 1 µM [6]: > 0.201 | fold induction at 8 µM [6]: 0.151 to 0.2

Cn1cnnc1C(F)(F)[C@](C)(F)c1cccc(N2Cc3c(cc(CN4CC[C@H](C#N)C4)cc3C(F)(F)F)C2=O)c1 [Compound 454, (S)-1-((3-oxo-2-(3-((R)-1,1,2-trifluoro-1-(4-methyl-4H-1,2,4-triazol-3-yl)propan-2-yl)phenyl)-7-(trifluoromethyl)isoindolin-5-yl)methyl)pyrrolidine-3-carbonitrile]
IC50 [1]: ≤ 100 nM | fold induction at 1 µM [2]: > 1 | fold induction at 8 µM [2]: > 1 | fold induction at 0.3 µM [3]: 5 to 7.5 | fold induction at 1 µM [3]: > 7.5 | fold induction at 4 µM [3]: > 7.5 | IC50 [4]: < 100 nM | fold induction at 0.3 µM [5]: 1.01 to 1.3 | fold induction at 1 µM [5]: 1.31 to 1.5 | fold induction at 4 µM [5]: 1.31 to 1.5 | fold induction at 1 µM [6]: > 0.201 | fold induction at 8 µM [6]: > 0.201

Cn1cnnc1C(F)(F)[C@](C)(F)c1cccc(N2Cc3c(cc(CN4CC(C#N)C4)cc3C(F)(F)F)C2=O)c1 [Compound 456, (R)-1-((3-oxo-2-(3-(1,1,2-trifluoro-1-(4-methyl-4H-1,2,4-triazol-3-yl)propan-2-yl)phenyl)-7-(trifluoromethyl)isoindolin-5-yl)methyl)azetidine-3-carbonitrile]
IC50 [1]: ≤ 300 nM | fold induction at 1 µM [2]: 0.801 to 1 | fold induction at 8 µM [2]: > 1 | fold induction at 0.3 µM [3]: 1.01 to 2.5 | fold induction at 1 µM [3]: 2.51 to 5 | fold induction at 4 µM [3]: 5 to 7.5 | IC50 [4]: 100 to 300 nM | fold induction at 0.3 µM [5]: 1.01 to 1.3 | fold induction at 1 µM [5]: 1.01 to 1.3 | fold induction at 4 µM [5]: 1.01 to 1.3 | fold induction at 1 µM [6]: 0.051 to 0.1 | fold induction at 8 µM [6]: 0.101 to 0.15
